Values belong to the compound of their own block, whether it stands above or below them.
Key:
[1] = biological target: T1, Tyrosine-protein kinase Mer (Homo sapiens) (UniProt Q12866); conditions: at 10 µM
T1 sequence (whole entry): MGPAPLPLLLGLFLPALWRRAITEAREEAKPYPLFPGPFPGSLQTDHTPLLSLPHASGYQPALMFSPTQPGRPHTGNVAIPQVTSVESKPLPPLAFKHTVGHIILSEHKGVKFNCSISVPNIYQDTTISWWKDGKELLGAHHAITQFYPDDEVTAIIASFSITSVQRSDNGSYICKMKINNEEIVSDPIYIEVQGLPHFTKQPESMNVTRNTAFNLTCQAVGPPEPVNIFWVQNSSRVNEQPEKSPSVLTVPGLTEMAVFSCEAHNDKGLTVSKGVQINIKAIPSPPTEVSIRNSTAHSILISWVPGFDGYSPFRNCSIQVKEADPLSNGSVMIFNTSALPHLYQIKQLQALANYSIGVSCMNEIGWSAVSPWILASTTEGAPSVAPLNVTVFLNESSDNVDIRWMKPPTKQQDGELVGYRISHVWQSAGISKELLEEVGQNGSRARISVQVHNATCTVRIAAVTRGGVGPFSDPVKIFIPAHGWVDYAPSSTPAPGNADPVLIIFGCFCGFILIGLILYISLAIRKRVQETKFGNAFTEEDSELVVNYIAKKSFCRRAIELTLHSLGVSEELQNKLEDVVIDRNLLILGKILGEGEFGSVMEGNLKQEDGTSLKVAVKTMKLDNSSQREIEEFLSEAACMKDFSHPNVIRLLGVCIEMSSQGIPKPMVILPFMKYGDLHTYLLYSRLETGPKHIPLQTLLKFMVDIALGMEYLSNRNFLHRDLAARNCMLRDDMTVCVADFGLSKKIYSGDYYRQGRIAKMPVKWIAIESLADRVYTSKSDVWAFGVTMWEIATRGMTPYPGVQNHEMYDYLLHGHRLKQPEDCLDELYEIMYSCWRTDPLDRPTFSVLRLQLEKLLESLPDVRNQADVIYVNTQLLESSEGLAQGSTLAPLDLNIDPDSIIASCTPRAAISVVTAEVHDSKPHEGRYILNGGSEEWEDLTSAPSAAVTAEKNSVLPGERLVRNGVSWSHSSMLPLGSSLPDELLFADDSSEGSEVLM

[2] = biological target: Tyrosine-protein kinase CSK (Homo sapiens) (UniProt P41240); experiment: Selectivity interaction (KinomeScan (DiscoverX)) EUB0001619a CSK; conditions: at 1 µM
[3] = biological target: T2, Dual specificity mitogen-activated protein kinase kinase 4 (Homo sapiens) (UniProt P45985); experiment: Selectivity interaction (KinomeScan (DiscoverX)) EUB0000045b MAP2K4
T2 sequence (whole entry): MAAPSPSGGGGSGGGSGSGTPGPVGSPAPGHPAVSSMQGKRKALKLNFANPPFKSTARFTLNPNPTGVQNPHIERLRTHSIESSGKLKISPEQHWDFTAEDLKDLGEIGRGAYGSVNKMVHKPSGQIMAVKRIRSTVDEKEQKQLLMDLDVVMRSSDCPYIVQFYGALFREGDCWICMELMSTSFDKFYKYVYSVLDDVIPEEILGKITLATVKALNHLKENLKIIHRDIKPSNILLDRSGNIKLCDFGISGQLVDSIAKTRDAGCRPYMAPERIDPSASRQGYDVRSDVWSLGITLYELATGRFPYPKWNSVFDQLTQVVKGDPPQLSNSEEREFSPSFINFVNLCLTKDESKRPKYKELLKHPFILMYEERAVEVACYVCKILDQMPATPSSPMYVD

[4] = biological target: T3, Mitogen-activated protein kinase kinase kinase 6 (Homo sapiens) (UniProt O95382); experiment: Selectivity interaction (ActivX KiNativ screen (kinase selectivity in THP-1 cell lysates)) EUB0000639a MAP3K6; format: subcellular; conditions: lysate, at 5 µM
T3 sequence (whole entry): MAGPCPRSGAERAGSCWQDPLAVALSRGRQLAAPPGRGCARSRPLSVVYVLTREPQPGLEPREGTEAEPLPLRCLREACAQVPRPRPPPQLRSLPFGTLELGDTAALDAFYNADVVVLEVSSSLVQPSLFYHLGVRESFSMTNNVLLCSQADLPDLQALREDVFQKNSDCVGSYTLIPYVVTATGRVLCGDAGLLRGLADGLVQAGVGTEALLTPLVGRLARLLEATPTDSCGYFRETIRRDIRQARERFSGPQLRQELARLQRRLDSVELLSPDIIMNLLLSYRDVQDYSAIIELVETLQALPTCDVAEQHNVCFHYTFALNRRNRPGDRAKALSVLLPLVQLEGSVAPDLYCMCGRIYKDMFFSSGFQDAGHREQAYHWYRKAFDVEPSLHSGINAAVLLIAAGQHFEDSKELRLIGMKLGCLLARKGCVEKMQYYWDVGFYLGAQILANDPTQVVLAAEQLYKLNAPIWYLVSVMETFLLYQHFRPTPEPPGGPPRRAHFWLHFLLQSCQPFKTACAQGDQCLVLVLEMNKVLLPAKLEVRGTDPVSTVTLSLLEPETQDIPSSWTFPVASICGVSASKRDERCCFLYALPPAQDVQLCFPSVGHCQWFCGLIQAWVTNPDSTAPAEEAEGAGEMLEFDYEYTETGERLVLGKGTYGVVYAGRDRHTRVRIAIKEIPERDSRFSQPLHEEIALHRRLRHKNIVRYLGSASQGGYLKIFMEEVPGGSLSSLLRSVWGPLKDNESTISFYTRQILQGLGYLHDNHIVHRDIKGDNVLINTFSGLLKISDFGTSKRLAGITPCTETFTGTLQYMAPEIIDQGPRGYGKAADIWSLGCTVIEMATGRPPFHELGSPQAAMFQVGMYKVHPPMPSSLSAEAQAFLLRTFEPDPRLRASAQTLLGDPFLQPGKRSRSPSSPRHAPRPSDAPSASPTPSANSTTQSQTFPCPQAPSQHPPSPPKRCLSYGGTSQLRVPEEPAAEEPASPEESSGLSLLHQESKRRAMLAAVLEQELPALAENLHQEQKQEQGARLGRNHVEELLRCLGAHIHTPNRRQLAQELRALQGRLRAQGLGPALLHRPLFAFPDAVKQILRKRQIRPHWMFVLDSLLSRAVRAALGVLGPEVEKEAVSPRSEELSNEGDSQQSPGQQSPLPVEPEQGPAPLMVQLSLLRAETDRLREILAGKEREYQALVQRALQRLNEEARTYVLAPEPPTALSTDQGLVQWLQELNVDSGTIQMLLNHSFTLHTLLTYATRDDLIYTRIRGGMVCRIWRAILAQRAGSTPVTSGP

[5] = biological target: CDK12/Cyclin K (Homo sapiens) (UniProt O75909+Q9NYV4); experiment: Selectivity interaction (ProQinase) EUB0000171b CDK12; format: protein-complex assay; conditions: at 1 µM
[6] = biological target: Serine/threonine-protein kinase pim-2 (Homo sapiens, UniProt Q9P1W9); experiment: Selectivity interaction (KinomeScan (DiscoverX)) EUB0000092b PIM2; conditions: at 10 µM
[7] = biological target: Serine/threonine-protein kinase mTOR (Homo sapiens, UniProt P42345); experiment: Selectivity interaction (Kinase panel (Z-LYTE Assay)) EUB0001632a MTOR; conditions: at 10 µM

Sequence of Tyrosine-protein kinase CSK (Homo sapiens) (P41240 2-450 limits assumed): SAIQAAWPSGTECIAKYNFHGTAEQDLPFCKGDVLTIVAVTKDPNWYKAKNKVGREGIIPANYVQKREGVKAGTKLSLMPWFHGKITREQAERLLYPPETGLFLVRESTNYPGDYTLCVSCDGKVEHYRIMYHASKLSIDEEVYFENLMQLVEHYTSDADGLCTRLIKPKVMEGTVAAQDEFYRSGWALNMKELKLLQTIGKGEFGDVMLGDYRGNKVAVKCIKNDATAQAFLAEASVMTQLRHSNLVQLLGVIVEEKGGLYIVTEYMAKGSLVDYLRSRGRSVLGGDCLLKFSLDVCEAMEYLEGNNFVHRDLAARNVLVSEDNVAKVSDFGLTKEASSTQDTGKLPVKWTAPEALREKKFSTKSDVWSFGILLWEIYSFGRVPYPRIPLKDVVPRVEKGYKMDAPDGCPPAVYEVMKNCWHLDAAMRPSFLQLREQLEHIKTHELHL
Sequence of Serine/threonine-protein kinase pim-2 (Q9P1W9 whole entry, looked up): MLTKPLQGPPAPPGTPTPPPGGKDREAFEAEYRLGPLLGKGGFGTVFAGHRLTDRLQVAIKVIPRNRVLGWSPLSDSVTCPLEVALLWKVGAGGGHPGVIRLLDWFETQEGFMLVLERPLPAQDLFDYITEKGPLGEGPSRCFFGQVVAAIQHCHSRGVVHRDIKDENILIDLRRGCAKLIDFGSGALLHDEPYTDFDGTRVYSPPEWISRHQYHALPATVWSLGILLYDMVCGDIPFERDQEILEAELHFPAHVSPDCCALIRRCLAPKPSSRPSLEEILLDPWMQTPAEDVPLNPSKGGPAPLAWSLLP
Sequence of CDK12/Cyclin K (Homo sapiens) (O75909 whole entry, looked up): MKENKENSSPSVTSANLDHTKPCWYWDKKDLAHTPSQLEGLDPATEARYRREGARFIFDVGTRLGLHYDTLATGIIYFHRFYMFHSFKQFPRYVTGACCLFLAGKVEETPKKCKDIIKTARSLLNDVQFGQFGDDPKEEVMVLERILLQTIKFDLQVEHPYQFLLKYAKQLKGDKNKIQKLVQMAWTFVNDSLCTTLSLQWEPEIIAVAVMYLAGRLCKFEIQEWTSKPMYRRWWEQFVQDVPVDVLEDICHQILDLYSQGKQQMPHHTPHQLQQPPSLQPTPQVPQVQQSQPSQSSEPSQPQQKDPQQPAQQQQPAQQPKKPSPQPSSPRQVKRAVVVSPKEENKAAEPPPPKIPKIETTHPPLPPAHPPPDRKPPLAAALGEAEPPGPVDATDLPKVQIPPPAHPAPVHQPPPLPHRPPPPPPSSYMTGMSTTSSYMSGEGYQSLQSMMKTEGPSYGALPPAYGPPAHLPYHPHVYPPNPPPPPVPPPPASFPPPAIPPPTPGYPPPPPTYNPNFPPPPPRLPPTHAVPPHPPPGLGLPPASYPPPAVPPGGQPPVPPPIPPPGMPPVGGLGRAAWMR
Sequence of CDK12/Cyclin K (Homo sapiens) (Q9NYV4 whole entry, looked up): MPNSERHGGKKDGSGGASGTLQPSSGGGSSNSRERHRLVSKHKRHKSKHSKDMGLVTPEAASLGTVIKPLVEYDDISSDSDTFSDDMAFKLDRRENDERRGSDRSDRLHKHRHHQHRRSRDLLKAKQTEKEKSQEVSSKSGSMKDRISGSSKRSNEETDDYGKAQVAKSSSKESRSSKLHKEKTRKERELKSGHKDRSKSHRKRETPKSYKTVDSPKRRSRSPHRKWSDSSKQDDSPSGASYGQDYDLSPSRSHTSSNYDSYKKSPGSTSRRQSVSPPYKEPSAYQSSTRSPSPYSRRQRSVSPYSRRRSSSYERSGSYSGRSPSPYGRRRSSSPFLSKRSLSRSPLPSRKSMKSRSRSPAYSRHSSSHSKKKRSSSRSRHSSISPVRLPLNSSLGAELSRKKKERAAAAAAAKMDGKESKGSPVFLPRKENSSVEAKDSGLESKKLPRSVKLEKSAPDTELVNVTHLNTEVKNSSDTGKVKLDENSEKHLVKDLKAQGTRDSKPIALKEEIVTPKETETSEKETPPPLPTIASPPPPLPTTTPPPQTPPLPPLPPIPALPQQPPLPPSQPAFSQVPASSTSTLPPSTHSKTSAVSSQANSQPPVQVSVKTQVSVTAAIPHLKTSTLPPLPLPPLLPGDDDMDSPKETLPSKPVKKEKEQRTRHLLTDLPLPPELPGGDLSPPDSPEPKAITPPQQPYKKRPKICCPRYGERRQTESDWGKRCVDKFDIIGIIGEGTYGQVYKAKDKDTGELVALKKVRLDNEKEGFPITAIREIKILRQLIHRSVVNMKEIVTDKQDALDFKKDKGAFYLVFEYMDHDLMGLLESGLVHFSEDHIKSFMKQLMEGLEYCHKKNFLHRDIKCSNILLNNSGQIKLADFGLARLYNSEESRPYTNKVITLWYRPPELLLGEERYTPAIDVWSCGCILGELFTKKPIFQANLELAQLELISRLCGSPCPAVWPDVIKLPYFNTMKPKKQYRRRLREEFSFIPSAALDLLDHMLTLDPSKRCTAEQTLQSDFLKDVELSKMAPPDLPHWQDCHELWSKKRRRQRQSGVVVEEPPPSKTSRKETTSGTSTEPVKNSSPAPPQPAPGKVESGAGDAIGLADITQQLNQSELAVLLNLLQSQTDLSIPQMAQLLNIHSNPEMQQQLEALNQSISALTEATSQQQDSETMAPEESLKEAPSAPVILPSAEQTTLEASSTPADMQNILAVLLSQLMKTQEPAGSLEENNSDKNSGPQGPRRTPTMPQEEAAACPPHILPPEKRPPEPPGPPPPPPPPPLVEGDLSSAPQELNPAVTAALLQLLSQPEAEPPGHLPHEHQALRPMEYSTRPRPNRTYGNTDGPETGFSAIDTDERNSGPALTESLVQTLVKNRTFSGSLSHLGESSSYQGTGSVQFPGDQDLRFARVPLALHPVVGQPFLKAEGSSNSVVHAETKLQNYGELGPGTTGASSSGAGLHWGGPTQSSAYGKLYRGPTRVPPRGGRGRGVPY

SMILES: CCN(CC)CCCCNc1ncc2cc(-c3cc(OC)cc(OC)c3)c(NC(=O)NC(C)(C)C)nc2n1
% of control [1]: 100%

SMILES: N#Cc1cccc(-c2c[nH]c3ncnc(N4CCOCC4)c23)c1
% of control [2]: 96%

SMILES: C=CC(=O)Nc1cc(-n2c(=O)ccc3cnc4ccc(-c5ccc(NS(C)(=O)=O)cc5)cc4c32)ccc1C
% of control ([3]; at 1 µM): 100% | % of control ([3]; at 10 µM): 4.9%

SMILES: CCC(=O)N1CCN(c2ccc(-n3c(=O)ccc4cnc5ccc(-c6cnc7ccccc7c6)cc5c43)cc2C(F)(F)F)CC1
% of control [6]: 62%

SMILES: Cn1cc(-n2cnc3c(NCc4nc5cc(Cl)c(Cl)cc5[nH]4)nc(N4CCOCC4)nc32)cn1
% of control [7]: 7.22%

The remaining lines, values ahead:

% of inhibition [4]: -27%
SMILES: CC[C@@H]1[C@H](F)C(=O)N[C@@H]1COc1nccc2cc(C(N)=O)c(OC)cc12 [ZIMLOVISERTIB]

% of control [5]: 82%
SMILES: C=CC(=O)Nc1cccc(C(=O)Nc2ccc(Nc3cc(-c4[nH]c(SC)nc4C)ccn3)cc2)c1

Reference: ChEMBL document CHEMBL5465560, “Selectivity Literature for EUbOPEN Chemogenomic Library” (2024)
